Assay results reported in patent publication US20260284166A1, “NOVEL TUMOR ANTIGENS FOR MELANOMA AND USES THEREOF” (UNIVERSITÉ DE MONTRÉAL, priority 2023, published 2026).
“Also recorded” adds a separate entry of the source.

Test system: CD8+ T cells from healthy donor PBMCs
Assay: Functional expansion of specific T cells (FEST) assay
Format: cell-based, human
Conditions: in vitro stimulation of healthy donor T cells with 1 μg/mL peptide, harvested day 20; TCR Vβ CDR3 sequencing of CD8+ cells
From the text: aeTSA selection for Immunogenicity assay. Melanoma aeTSAs to be tested in T cell-based immunogenicity assays were selected based on the following criteria: 1) complete loss of expression (RPHM) on-therapy in at least one responder from the Riaz et al.^8 cohort capable to present the respective aeTSAs (at least one HLA allele with rank elution <2% in NetMHCpan4.1b^5), 2) elevated mean expression in TCGA-SKCM, 3) the HLA allotype presenting the aeTSA (HLA-A*02:01 or HLA-B*68:01 shared by the melanoma samples and PBMCs donors), 4) the aeTSA biotype (25% canonical, 75% non-canonical), 5) novel MAP status.
T cells were cultured as previously described^9, with minor modifications. Briefly, on day 0, thawed PBMCs from D36 (Miltenyi Biotec) were T cell-enriched using the Human Pan T cell isolation kit (Miltenyi Biotec). T cells were resuspended at 2×10^6/mL in AIM V media supplemented with 50 μg/mL gentamicin (ThermoFisher Scientific) and 1% HEPES. The T cell-negative fraction was irradiated at 30 Gγ, washed, and resuspended at 2×10^6/mL in AIM V media supplemented with 50 μg/mL gentamicin and 1% HEPES. 2.5 ml per well of both T cells and irradiated T cell-depleted cells were added to a 12-well plate, along with each peptide (GLS Biochem) (1 μg/mL final concentration) or without peptide. Cells were cultured for 10 days at 37° C., 5% CO2. On day 3 and 7, half the culture media was replaced with fresh culture media containing 100 IU/mL IL-2, 50 ng/mL IL-7, and 50 ng/mL IL-15 (day 3) and 200 IU/mL IL-2, 50 ng/mL IL-7, and 50 ng/mL IL-15 (day 7). On day 10, thawed PBMCs from the same donor were used to generate a new batch of T cell-depleted cells. These cells were irradiated at 30 Gγ and loaded with […] of relevant peptide or without peptide during 2 h at 37° C. These cells were washed and added to cultures at a 1:1 T cell:non-T cell ratio. […] On day 20, cells were harvested to perform FEST assays.
For FEST assays, CD8^+ cells were further isolated using the Human CD8^+ T Cell Isolation Kit (Miltenyi Biotec). […]

| Sequence | Amino acid sequences of the CDR3 of the TCRβ chain of the clonotypes expanded |
| --- | --- |
| AAAGVSSTK [SEQ ID NO: 73] | CASSPTNTYEQYF; also recorded: CASHPAGADMNTEAFF; also recorded: CASSLAGRETQYF; also recorded: CASSVWGEPYNEQFF; also recorded: CASSRTDSYEQYF; also recorded: CASSLQGANGYTF |
| GVDDLVFRR [SEQ ID NO: 64] | CASSPDPEGGEQYF; also recorded: CASSLQGHGYTF; also recorded: CASNVARTGGDISGDYEQYF; also recorded: CASSLGLAGSYEQYF; also recorded: CASSDSSYNSPLHF |
| HTLPALSRR [SEQ ID NO: 66] | CASSFQGLNTEAFF (SEQ ID NO: 1103); also recorded: CASSPGQGNEKLFF (SEQ ID NO: 1104); also recorded: CASSLGSGYEQYF (SEQ ID NO: 1105); also recorded: CASSLGLYNEQFF (SEQ ID NO: 1106); also recorded: CASSPGTDYNEQFF (SEQ ID NO: 1107); also recorded: CATRPGAIRGYTF (SEQ ID NO: 1108); also recorded: CASSLIGGADTEAFF (SEQ ID NO: 1109) |
